Among the data in patent US10118926B2, “Tricyclic quinoline and quinoxaline derivatives” (AbbVie Deutschland GmbH & Co. KG, priority 2012, dated 2018) are EC50 and Emax values, retold here.

The assay concerns the target T1, 5-HT2C receptor (Homo sapiens, UniProt P28335).
T1 construct: β-galactosidase enzyme-complementation fragment (ProLink-type donor); host or cells: U2OS
The assay is described as follows: Functional activity: beta-arrestin2 recruitment to the 5-HT2C receptor in U2OS_HTR2C_β-Arrestin cells (DiscoverX). Format: cell-based. The conditions noted are these: for EC50: U2OS_HTR2C_β-Arrestin cells, 1.5 h incubation, chemiluminescent β-galactosidase complementation readout, read-out: Potency (EC50) in functional assay; for Emax: relative efficacy: response as percentage of response to 10 μM 5-HT or maximal effect induced by 5-HT (defined as 100%). On the procedure: The functional activity of compounds of formula I was assayed by incubation with U2OS_HTR2C_β-Arrestin cells (DiscoverX, 93-0289C3) to induce beta-arrestin2 recruitment to the 5-HT2C receptor. The agonist-induced recruitment and proximity of the receptor and beta-arrestin2 leads to complementation and formation of active β-galactosidase. The enzyme complementation results in enzyme activity, which is measured following the termination of the agonist incubation using DiscoveRx's detection reagent, which contains a chemiluminescent substrate which produces a high intensity signal. Cells were plated and a medium-change to a 1% serum containing medium was performed 24 h later. The next day, test compounds were added and incubated for 1.5 h before addition of detection reagent.
The response produced was measured and compared with the response produced by 10 [mu]M 5-HT or the maximal effect induced by 5-HT (defined as 100%) to which it was expressed as a percentage response (relative efficacy). Dose response curves were constructed using Graphpad Prism (Graph Software Inc.) or using in house adapted software using a 4 parameter dose response model with variable slope (fit=(Bottom+(Top−Bottom)/(1+10^((Log EC50−x)*HillSlope))res=(y−fit)). Results are compiled in the table below.
In general terms: Activated receptors often draw arrestin, which recruitment assays turn into a signal.

T1 sequence (P28335 33-458): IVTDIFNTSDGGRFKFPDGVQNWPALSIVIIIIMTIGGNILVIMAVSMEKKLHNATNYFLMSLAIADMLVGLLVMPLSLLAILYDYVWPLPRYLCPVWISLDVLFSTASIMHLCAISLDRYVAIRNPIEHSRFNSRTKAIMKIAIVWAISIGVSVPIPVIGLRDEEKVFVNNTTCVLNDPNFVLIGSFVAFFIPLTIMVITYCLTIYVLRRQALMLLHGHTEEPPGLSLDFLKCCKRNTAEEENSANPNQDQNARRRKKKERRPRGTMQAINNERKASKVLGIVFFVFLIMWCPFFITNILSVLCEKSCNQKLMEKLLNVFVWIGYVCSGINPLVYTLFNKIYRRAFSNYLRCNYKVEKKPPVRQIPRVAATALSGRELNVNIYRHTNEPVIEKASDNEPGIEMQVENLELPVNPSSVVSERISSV
T1 sequence (P32121 whole entry partner, the tested form may be a part): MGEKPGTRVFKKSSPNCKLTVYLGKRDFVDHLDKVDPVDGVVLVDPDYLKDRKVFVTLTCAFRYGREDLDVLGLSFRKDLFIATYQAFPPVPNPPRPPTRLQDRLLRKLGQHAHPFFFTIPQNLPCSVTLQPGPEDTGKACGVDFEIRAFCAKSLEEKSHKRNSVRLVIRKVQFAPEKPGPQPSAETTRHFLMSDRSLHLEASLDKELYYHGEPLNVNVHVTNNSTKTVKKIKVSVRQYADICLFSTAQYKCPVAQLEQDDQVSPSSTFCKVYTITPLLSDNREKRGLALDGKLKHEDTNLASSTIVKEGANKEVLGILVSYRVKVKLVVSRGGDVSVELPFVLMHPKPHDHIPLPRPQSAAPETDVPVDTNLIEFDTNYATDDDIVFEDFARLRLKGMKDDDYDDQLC

Broadly, the EC50 is the midpoint of the concentration-response curve. The Emax is the maximal effect, on the per cent scale that the assay sets. As for `Cc1ccc2c3c1C1(CCC1)CCN3CCNC2` [Example 67, 9-Methyl-1,2,3,4,6,7-hexahydrospiro[[1,4]diazepino[6,7,1-ij]quinoline-8,1′-cyclobutane], trifluoroacetic acid], the EC50 is under 20 nM and the Emax amounted to 116%.
In the same order, the values of `c1cc2c3c(c1)N1CC4CC4C1CN3CCNC2` (stereo not shown) [Example 68, 4,5,6,7,9,9a,9b,10,10a,11-Decahydrocyclopropa[3,4]pyrrolo[1,2-a][1,4]diazepino[1,7,6-de]quinoxaline] are 20 to 200 nM and 76%.
In the same order, the values of `CCN1CCN2CCNCc3cccc1c32` [Example 69, 1-Ethyl-2,3,5,6,7,8-hexahydro-1H-[1,4]diazepino[1,7,6-de]quinoxaline] are 200 to 1000 nM and 54%.
Regarding `CCCN1CCN2CCNCc3cccc1c32` [Example 70, 1-Propyl-2,3,5,6,7,8-hexahydro-1H-[1,4]diazepino[1,7,6-de]quinoxaline], the EC50 was 20 to 200 nM and the Emax was found to be 63%.
Taken in the same sequence, the figures for `Cc1cc2c3c(c1)C1(CCC1)CCN3CCNC2` [Example 76, 10-Methyl-1,2,3,4,6,7-hexahydrospiro[[1,4]diazepino[6,7,1-ij]quinoline-8,1′-cyclobutane], trifluoroacetic acid] were under 20 nM and 98%.
